From patent US20210220331A1, “INHIBITORS OF IRES-MEDIATED PROTEIN SYNTHESIS” (The Regents of the University of California, priority 2016, published 2021) come the findings set out here.

Type in all cases: cell-based
One experiment concerns human cyclin D1 IRES. The experiment can be described thus: Dicistronic IRES mRNA reporter assay (firefly luciferase), cyclin D1 IRES. Conditions: LN229; relative to values obtained with parent compound C11. As to the method: (§1) Western blot and quantitative RT-PCR analyses were performed as previously described (19). For Western blotting, cells or tissues were lysed in RIPA (lysis) buffer containing protease inhibitor cocktail and phosSTOP phosphatase inhibitor cocktail (Roche) and extracts resolved by SDSPAGE. Proteins were transferred to PVDF membranes and incubated with the indicated antibodies. For IRES reporter assays, the indicated mRNA reporters were cotransfected into cells with pSVβ-galactosidase to normalize for transfection efficiency as described previously (16). Cells were harvested 18 h following transfection and Renilla, firefly and β-galactosidase activities determined using the Dual-Glo Luciferase and β-galactosidase assay systems (Promega).
(§2) (B) Schematic diagrams of the dicistronic constructs used in this study. Constructs used are pRF, pRCD1F, which contains the human cyclin D1 IRES, pRmycF, containing the human c-myc IRES, pRp27F, containing the human p27Kip1 IRES and pRECMVF, containing the IRES from encephalomyocarditis virus. (C) Relative Renilla and firefly luciferase activities obtained from LN229 GBM cells transfected with the indicated constructs in the absence or presence of the inhibitor C11. The mean and +SD are shown for three independent experiments. […] (D) RNA-pull down assays utilizing biotinylated cyclin D1 or c-MYC IRES RNAs. Cytoplasmic extracts of LN229 cells treated with C11 (50 nM) as indicated were incubated with biotinylated cyclin D1 or c-MYC IRES RNAs and precipitated with streptavidin-Sepharose beads. Input and bound fractions were analyzed by immunoblotting using hnRNP A1 antibodies. […] RT-PCR measurements were performed in quadruplicate and the mean and +S.D. are shown. […] (F) Top panel, LN229 cells were treated with C11 as indicated and RT-PCR splicing analysis for Max exon 5 performed as described in the Experimental Methods section. Middle panel, LN229 cells treated with C11 (50 nM) as indicated, were lysed and immunoprecipitated using either eIF-4E or control IgG antibodies. Bound CCND1 or c-MYC RNAs were detected via RT-PCR. The mean and +S.D. are shown for three independent experiments. Bottom panel, cyclin D1 and c-MYC protein levels from the indicated GBM cell lines in the absence or presence of C11 at 24 h following treatment. C11 specifically blocks c-Myc IRES-mediated translation initiation by disrupting the ITAF hnRNP A1-IRES interaction.
(§3) Several dicistronic IRES mRNA reporter constructs were utilized, shown in FIG. 1B, in which the indicated IRES sequences were inserted within the intercistronic region. LN229 cells transiently transfected with these constructs were assayed for Renilla and firefly luciferase activities, which are readouts of cap-dependent and IRES-mediated translation initiation, respectively (16). […]

For another experiment, the system named is human c-myc IRES. In words: Dicistronic IRES mRNA reporter assay (firefly luciferase), c-myc IRES. Conditions: LN229; relative to values obtained with parent compound C11. The method, then:
as §1, §2, §3
(In a reporter assay the amount or activity of a reporter protein is the signal.)

Experiment [1] deals with LN229 cells. The experiment can be described thus: Combination analysis with PP242 (XTT, combination index) in LN229. To be noted: combination of PP242 and analog, CI=1.0 dose additive, CI<0.5 synergy, CI<0.3 strong synergy. From the text:
Fold decrease in either PP242-induced cyclin D1 or c-MYC IRES activity in LN229 relative to values obtained with the parent compound C11 are shown for each analog. […] CI=1.0 (dose additive), CI<0.5 (synergy), CI<0.3 (strong synergy).
The structure-activity relationships (SAR) for C11 and related compounds were investigated by synthesizing and testing the analogs listed in Table 1. […] The degree of apoptotic cell death following co-treatment with analog and PP242 was also monitored.

The subject of experiment [2] is LN229 cells. In words: Apoptosis via Annexin V staining in LN229. To be noted: LN229 cotreated with PP242 (50 nM) and analog (100 nM), 24 h.

In the case of `COc1ccc(CN2C(=O)C=CC2=O)c(OC)c1` [IRES-J000, 1-((2,4-Dimethoxyphenyl)methyl)-1H-pyrrole-2,5-dione], the “Cyclin D1 (decrease): fold decrease in PP242-induced cyclin D1 IRES activity” value (shortened to “Cyclin D1 (decrease): fold decrease”) with human cyclin D1 IRES was found to be 1.05 ± 0.21 fold. The “c-myc (decrease): fold decrease in PP242-induced c-MYC IRES activity” value (“c-myc (decrease): fold decrease” for short) in the experiment on human c-myc IRES stood at 1.01 ± 0.03 fold. The “CI ED50, 1:100 (combination index)” value in the experiment on LN229 cells [1] was 0.51. The “% Apoptosis (100 nM)” value in the experiment with LN229 cells [2] was 25.6%.
For `O=C1C=CC(=O)N1Cc1ccccc1` [IRES-J001, 1-Phenylmethyl-1H-pyrrole-2,5-dione], the “Cyclin D1 (decrease): fold decrease” value in the experiment with human cyclin D1 IRES was determined as 1.49 ± 0.05 fold. In the experiment on human c-myc IRES, the “c-myc (decrease): fold decrease” value came to 1.12 ± 0.13 fold. The “CI ED50, 1:100 (combination index)” value in the experiment on LN229 cells [1] came out at 0.89. Besides, the “% Apoptosis (100 nM)” value in the experiment with LN229 cells [2] is 30.2%.
The matching figures for `COc1ccc(CN2C(=O)C=CC2=O)cc1` [IRES-J002, 1-((4-Methoxyphenyl)methyl)-1H-pyrrole-2,5-dione]: 1.60 ± 0.18 fold, 1.37 ± 0.21 fold, 0.86 and 28.6%.
For `O=C1C=CC(=O)N1Cc1ccc(F)cc1` [IRES-J003, 1-((4-Fluorophenyl)methyl)-1H-pyrrole-2,5-dione], the “Cyclin D1 (decrease): fold decrease” value in the experiment on human cyclin D1 IRES is recorded as 0.97 ± 0.06 fold. In addition, the “c-myc (decrease): fold decrease” value in the experiment on human c-myc IRES came out at 1.19 ± 0.04 fold. For the same compound, the “CI ED50, 1:100 (combination index)” value in the experiment with LN229 cells [1] was 0.88. The “% Apoptosis (100 nM)” value with LN229 cells [2] came to 27.1%.
The matching figures for `COc1ccc(CN2C(=O)C(C)=C(C)C2=O)c(OC)c1` [IRES-J004, 1-((2,4-Dimethoxyphenyl)methyl)-3,4-dimethyl-1H-pyrrole-2,5-dione]: 1.42 ± 0.07 fold, 1.39 ± 0.11 fold, 0.82 and 24.8%.
Taken in the same sequence, the figures for `COc1ccc(CN2C(=O)C(c3ccccc3)=C(c3ccccc3)C2=O)c(OC)c1` [IRES-J005, 1-((2,4-Dimethoxyphenyl)methyl)-3,4-diphenyl-1H-pyrrole-2,5-dione] were 1.32 ± 0.14 fold, 1.28 ± 0.16 fold, 0.91 and 23.5%.
The matching figures for `COc1ccc(CN2C(=O)CCC2=O)c(OC)c1` [IRES-J006, 1-((2,4-Dimethoxyphenyl)methyl)pyrrolidine-2,5-dione]: 1.26 ± 0.10 fold, 1.25 ± 0.19 fold, 0.94 and 20.1%.
With `COc1ccc(N2C(=O)C=CC2=O)cc1` [IRES-J008, 1-(4-Methoxyphenyl)-1H-pyrrole-2,5-dione], the “Cyclin D1 (decrease): fold decrease” value in the experiment with human cyclin D1 IRES was found to be 5.58 ± 0.16 fold. Further, the “c-myc (decrease): fold decrease” value in the experiment on human c-myc IRES is listed as 5.92 ± 0.10 fold. For the same compound, the “CI ED50, 1:100 (combination index)” value with LN229 cells [1] was 0.39. Further, the “% Apoptosis (100 nM)” value with LN229 cells [2] was 75.7%.
The matching figures for `O=C1c2ccccc2C(=O)N1Cc1ccccc1` [IRES-J010, 2-(Phenylmethyl)isoindoline-1,3-dione]: 1.77 ± 0.16 fold, 1.94 ± 0.25 fold, 0.83 and 19.7%.
Taken in the same sequence, the figures for `O=C1c2ccccc2C(=O)N1Nc1ccccc1` [IRES-J011, 2-(Phenylamino)isoindoline-1,3-dione] were 1.91 ± 0.1 fold, 1.64 ± 0.18 fold, 0.86 and 22.8%.
Taken in the same sequence, the figures for `O=C1c2ccccc2C(=O)N1N(c1ccccc1)c1ccccc1` [IRES-J012, 2-(Diphenylamino)isoindoline-1,3-dione] were 1.02 ± 0.31 fold, 1.53 ± 0.17 fold, 0.89 and 20.1%.
As for `COc1ccc(N2C(=O)c3ccccc3C2=O)cc1` [IRES-J013, 2-(4-Methoxyphenyl)isoindoline-1,3-dione], in the experiment with human cyclin D1 IRES, the “Cyclin D1 (decrease): fold decrease” value is 1.17 ± 0.21 fold. The “c-myc (decrease): fold decrease” value in the experiment with human c-myc IRES is given as 1.72 ± 0.06 fold. Also, the “CI ED50, 1:100 (combination index)” value in the experiment with LN229 cells [1] came to 0.85. In addition, in the experiment with LN229 cells [2], the “% Apoptosis (100 nM)” value is 19.2%.
The matching figures for `CN(C)c1ccc(N2C(=O)c3ccccc3C2=O)cc1` [IRES-J014, 2-(4-(Dimethylamino)phenyl)isoindoline-1,3-dione]: 1.86 ± 0.27 fold, 1.33 ± 0.11 fold, 0.84 and 20.6%.
Turning to `COCCCN1C(=O)c2ccccc2C1=O` [IRES-J015, 2-(3-Methoxypropyl)isoindoline-1,3-dione], the “Cyclin D1 (decrease): fold decrease” value with human cyclin D1 IRES is 1.61 ± 0.15 fold. In the experiment with human c-myc IRES, the “c-myc (decrease): fold decrease” value is 1.25 ± 0.24 fold. In addition, the “CI ED50, 1:100 (combination index)” value in the experiment with LN229 cells [1] came out at 0.88. Besides, the “% Apoptosis (100 nM)” value with LN229 cells [2] was determined as 18.3%.
